# According to patent publication US11229623B2 (GlaxoSmithKline Intellectual Property (No.2) Limited, priority 2016, dated 2022):
# Molecular target: T1, human TRPV4 (Homo sapiens, UniProt Q9HBA0)
# T1 construct: expressed in transfected cells; host or cells: BHK/AC9 cells transduced with BacMam virus
# Assay: FLIPR assay for hTRPV4 expressed in BHK cells: inhibition of Agonist Compound-induced calcium signal
# Type: cell-based
# Settings: hTRPV4 in BHK/AC9 cells, FLIPR calcium signal, agonist at EC80; reported as range class; read-out: IC50
# In short: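 BHK/AC9 cells transduced with BacMam human TRPV4 (MOI 78), plated 15,000 per well and cultured 24 h at 37° C. Loaded with 2 μM Fluo-4 AM plus 500 μM Brilliant Black in HBSS for 1-1.5 h at room temperature in the dark; intracellular calcium signal read by FLIPR fluorescence.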
# T1 sequence (Q9HBA0 whole entry): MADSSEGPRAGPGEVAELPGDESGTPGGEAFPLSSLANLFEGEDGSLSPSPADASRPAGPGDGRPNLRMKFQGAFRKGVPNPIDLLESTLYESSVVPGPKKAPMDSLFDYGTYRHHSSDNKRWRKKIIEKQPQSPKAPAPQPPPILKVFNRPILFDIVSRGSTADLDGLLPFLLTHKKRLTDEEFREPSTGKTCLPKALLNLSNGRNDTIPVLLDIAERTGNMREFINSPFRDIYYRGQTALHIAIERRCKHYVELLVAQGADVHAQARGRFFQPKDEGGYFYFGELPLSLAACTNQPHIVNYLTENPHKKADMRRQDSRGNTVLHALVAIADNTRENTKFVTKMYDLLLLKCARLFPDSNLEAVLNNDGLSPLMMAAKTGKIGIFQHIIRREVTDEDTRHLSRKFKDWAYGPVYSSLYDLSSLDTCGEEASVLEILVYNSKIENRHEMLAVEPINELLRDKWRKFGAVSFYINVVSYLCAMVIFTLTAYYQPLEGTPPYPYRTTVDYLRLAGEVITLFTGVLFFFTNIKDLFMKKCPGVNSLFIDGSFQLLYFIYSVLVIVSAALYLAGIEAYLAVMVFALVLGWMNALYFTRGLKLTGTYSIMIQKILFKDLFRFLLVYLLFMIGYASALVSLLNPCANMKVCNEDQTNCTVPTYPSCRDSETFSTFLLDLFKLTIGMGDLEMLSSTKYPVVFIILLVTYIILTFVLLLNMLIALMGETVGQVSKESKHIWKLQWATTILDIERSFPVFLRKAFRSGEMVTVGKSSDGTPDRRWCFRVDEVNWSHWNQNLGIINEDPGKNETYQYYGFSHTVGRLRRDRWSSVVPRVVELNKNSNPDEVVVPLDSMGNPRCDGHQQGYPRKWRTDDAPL
row,IC50,SMILES
1,10 to 100 nM,"N#Cc1ccc(O[C@H]2CN(S(=O)(=O)c3ccc(Br)nc3)C[C@@]2(O)CO)cc1F [Example 99, 4-(((3S,4R)-1-((6-bromopyridin-3-yl)sulfonyl)-4-hydroxy-4-(hydroxymethyl)pyrrolidin-3-yl)oxy)-2-fluorobenzonitrile]"
2,10 to 100 nM,"Cc1ccc(O[C@H]2CN(S(=O)(=O)c3ccc(C(F)(F)F)cc3C#N)C[C@@]2(O)CO)cc1 [Example 51, 2-(((3R,4S)-3-hydroxy-3-(hydroxymethyl)-4-(p-tolyloxy)pyrrolidin-1-yl)sulfonyl)-5-(trifluoromethyl)benzonitrile]"
3,10 to 100 nM,"N#Cc1cc(C(F)(F)F)ccc1S(=O)(=O)N1C[C@H](Oc2ccc(Cl)c(Cl)c2)[C@](O)(CO)C1 [Example 39, 2-(((3R,4S)-4-(3,4-dichlorophenoxy)-3-hydroxy-3-(hydroxymethyl)pyrrolidin-1-yl)sulfonyl)-5-(trifluoromethyl)benzonitrile]"
4,0.1 to 10 nM,"COC(=O)c1cc(C#N)ccc1O[C@H]1CN(S(=O)(=O)c2ccc(C(F)(F)F)cc2C#N)C[C@@]1(O)CO [Example 34, methyl 5-cyano-2-(((3S,4R)-1-((2-cyano-4-(trifluoromethyl)phenyl)sulfonyl)-4-hydroxy-4-(hydroxymethyl)pyrrolidin-3-yl)oxy)benzoate]"
5,10 to 100 nM,"N#Cc1cc(C(F)(F)F)ccc1S(=O)(=O)N1C[C@H](Oc2ccc(C(F)(F)F)nc2)[C@](O)(CO)C1 [Example 42, 2-(((3R,4S)-3-hydroxy-3-(hydroxymethyl)-4-((6-(trifluoromethyl)pyridin-3-yl)oxy)pyrrolidin-1-yl)sulfonyl)-5-(trifluoromethyl)benzonitrile]"
6,10 to 100 nM,"N#Cc1ccc(O[C@H]2CN(S(=O)(=O)c3ccc(Cl)cc3Cl)C[C@@]2(O)CO)cn1 [Example 73, 5-(((3S,4R)-1-((2,4-dichlorophenyl)sulfonyl)-4-hydroxy-4-(hydroxymethyl)pyrrolidin-3-yl)oxy)picolinonitrile]"
7,10 to 100 nM,"N#Cc1ccc(O[C@H]2CN(S(=O)(=O)c3cccnc3C#N)C[C@]2(O)CO)cc1F [Example 140, 3-(((3S,4S)-4-(4-cyano-3-fluorophenoxy)-3-hydroxy-3-(hydroxymethyl)pyrrolidin-1-yl)sulfonyl)picolinonitrile]"
8,0.1 to 10 nM,"N#Cc1ccc(O[C@H]2CN(S(=O)(=O)c3ccc(C(F)(F)F)cc3C#N)C[C@@]2(O)CO)c(Cl)c1 [Example 14, 2-(((3R,4S)-4-(2-chloro-4-cyanophenoxy)-3-hydroxy-3-(hydroxymethyl)pyrrolidin-1-yl)sulfonyl)-5-(trifluoromethyl)benzonitrile]"
9,10 to 100 nM,"Cn1ncc(Cl)c1S(=O)(=O)N1C[C@H](Oc2ccc(C#N)c(F)c2)[C@](O)(CN)C1 [Example 241, 4-(((3S,4S)-4-(aminomethyl)-1-((4-chloro-1-methyl-1H-pyrazol-5-yl)sulfonyl)-4-hydroxpyrrolidin-3-yl)oxy)-2-fluorobenzonitrile, 2,2,2-trifluoroacetate]"
10,0.1 to 10 nM,"N#Cc1ccc(O[C@H]2CN(S(=O)(=O)c3ccccc3I)C[C@@]2(O)CO)cc1F [Example 119, 2-fluoro-4-(((3S,4R)-4-hydroxy-4-(hydroxymethyl)-1-((2-iodophenyl)sulfonyl)pyrrolidin-3-yl)oxy)benzonitrile]"
11,10 to 100 nM,"N#Cc1ccc(O[C@H]2CN(S(=O)(=O)c3ccc(C(F)(F)F)cc3C#N)C[C@@]2(O)CO)cc1OC(F)(F)F [Example 21, 4-(((3S,4R)-1-((2-cyano-4-(trifluoromethyl)phenyl)sulfonyl)-4-hydroxy-4-(hydroxymethyl)pyrrolidin-3-yl)oxy)-2-(trifluoromethoxy)benzonitrile]"
12,0.1 to 10 nM,"N#Cc1ccc(O[C@H]2CN(S(=O)(=O)c3ccc(C(F)(F)F)cc3Cl)C[C@@]2(O)CO)cc1F [Example 63, 4-(((3S,4R)-1-((2-chloro-4-(trifluoromethyl)phenyl)sulfonyl)-4-hydroxy-4-(hydroxymethyl)pyrrolidin-3-yl)oxy)-2-fluorobenzonitrile]"
13,10 to 100 nM,"N#Cc1ccc(O[C@H]2CN(S(=O)(=O)c3ccc(C(F)(F)F)cc3Cl)C[C@@]2(O)CO)cc1 [Example 49, 4-(((3S,4R)-1-((2-chloro-4-(trifluoromethyl)phenyl)sulfonyl)-4-hydroxy-4-(hydroxymethyl)pyrrolidin-3-yl)oxy)benzonitrile]"
14,0.1 to 10 nM,"N#Cc1ccc(O[C@H]2CN(S(=O)(=O)c3ccc(C(F)(F)F)cc3C#N)C[C@@]2(O)CO)c(OC2CC2)c1 [Example 45, 2-(((3R,4S)-4-(4-cyano-2-cyclopropoxyphenoxy)-3-hydroxy-3-(hydroxymethyl)pyrrolidin-1-yl)sulfonyl)-5-(trifluoromethyl)benzonitrile]"
15,10 to 100 nM,"N#Cc1ccc(O[C@H]2CN(S(=O)(=O)c3ccc(Cl)c(OC(F)(F)F)c3)C[C@@]2(O)CO)cc1F [Example 129, 4-(((3S,4R)-1-((4-chloro-3-(trifluoromethoxy)phenyl)sulfonyl)-4-hydroxy-4-(hydroxymethyl)pyrrolidin-3-yl)oxy)-2-fluorobenzonitrile]"
16,0.1 to 10 nM,"CCNC[C@]1(O)CN(S(=O)(=O)c2ccc(C(F)(F)F)cc2C#N)C[C@@H]1Oc1ccc(C#N)c(F)c1 [Example 238, 4-(((3S,4S)-1-((2-cyano-4-(trifluoromethyl)phenyl)sulfonyl)-4-((ethylamino)methyl)-4-hydroxypyrrolidin-3-yl)oxy)-2-fluorobenzonitrile, 2,2,2-trifluoroacetate]"
17,0.1 to 10 nM,"CC#Cc1ccc(S(=O)(=O)N2C[C@H](Oc3ccc(C#N)c(F)c3)[C@](O)(CO)C2)nc1 [Example 227, 2-fluoro-4-(((3S,4R)-4-hydroxy-4-(hydroxymethyl)-1-((5-(prop-1-yn-1-yl)pyridin-2-yl)sulfonyl)pyrrolidin-3-yl)oxy)benzonitrile]"
18,100 to 1000 nM,"N#Cc1ccc(O[C@H]2CN(S(=O)(=O)c3ccc(Cl)cn3)C[C@]2(O)CO)cc1F [Example 136, 4-(((3S,4S)-1-((5-chloropyridin-2-yl)sulfonyl)-4-hydroxy-4-(hydroxymethyl)pyrrolidin-3-yl)oxy)-2-fluorobenzonitrile]"
19,10 to 100 nM,"CCC[C@H](O)[C@]1(O)CN(S(=O)(=O)c2ccc(Cl)cn2)C[C@@H]1Oc1ccc(C#N)c(F)c1 [Example 189, 4-(((3S,4R)-1-((5-chloropyridin-2-yl)sulfonyl)-4-hydroxy-4-((S)-1-hydroxybutyl)pyrrolidin-3-yl)oxy)-2-fluorobenzonitrile]"
20,10 to 100 nM,"N#Cc1ccc(O[C@H]2CN(S(=O)(=O)c3ccc(F)cn3)C[C@@]2(O)CN)cc1F [Example 242, 4-(((3S,4S)-4-(aminomethyl)-1-((5-fluoropyridin-2-yl)sulfonyl)-4-hydroxpyrrolidin-3-yl)oxy)-2-fluorobenzonitrile, 2,2,2-trifluoroacetate]"
21,10 to 100 nM,"CC(=O)c1ccc(S(=O)(=O)N2C[C@H](Oc3ccc(C#N)c(F)c3)[C@](O)(CO)C2)c(C#N)c1 [Example 72, 4-(((3S,4R)-1-((4-acetyl-2-cyanophenyl)sulfonyl)-4-hydroxy-4-(hydroxymethyl)pyrrolidin-3-yl)oxy)-2-fluorobenzonitrile]"
22,10 to 100 nM,"COc1ccc(O[C@H]2CN(S(=O)(=O)c3ccc(C(F)(F)F)cc3C#N)C[C@@]2(O)CO)cc1F [Example 43, 2-(((3R,4S)-4-(3-fluoro-4-methoxyphenoxy)-3-hydroxy-3-(hydroxymethyl)pyrrolidin-1-yl)sulfonyl)-5-(trifluoromethyl)benzonitrile]"
